Data: patent publication US7138361B2, “Herbicidal heterocycles” (E. I. du Pont de Nemours and Company, priority 2000, dated 2006)

Legend:
Type in all cases: in vivo
Nightshade = test: Test C preemergence; settings: Rate 500 g/ha, visual evaluation after 12 to 14 days
[1] = test system: barnyardgrass (Echinochloa crus-galli); test: Test B preemergence
How it was run: (§1)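 Post-treatment, species sat 13–15 days under greenhouse conditions before visual scoring against controls, 0 (no effect) through 100 (complete control). Application preemergence to sown seeds or postemergence at 1- to 4-leaf stage, using a non-phytotoxic solvent/surfactant formulation.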

[2] = test system: giant foxtail (Setaria faberii); test: Test B preemergence
How it was run: as §1

[3] = test system: pigweed (Amaranthus retroflexus); test: Test B preemergence
How it was run: as §1

[4] = test system: velvetleaf (Abutilon theophrasti); test: Test B preemergence
How it was run: as §1

[5] = test system: crabgrass (Digitaria sanguinalis); test: Test B preemergence
How it was run: as §1

rice (Oryza saliva) = test: Test B preemergence
How it was run: as §1

[6] = test system: morning glory (Ipomoea hederacea); test: Test B preemergence
How it was run: as §1

[7] = test system: cocklebur (Xanthium strumarium); test: Test B preemergence
How it was run: as §1

[8] = test system: Surinam grass (Brachiaria decumbens); test: Test B preemergence
How it was run: as §1

corn (Zea mays) [9] = test: Test B preemergence
How it was run: as §1

[10] = test system: lambsquarters (Chenopodium album); test: Test B preemergence
How it was run: as §1

[11] = test system: barnyardgrass (Echinochloa crus-galli); test: Test B postemergence
How it was run: as §1

[12] = test system: giant foxtail (Setaria faberii); test: Test B postemergence
How it was run: as §1

wild oat (Avena fatua) = test: Test B postemergence
How it was run: as §1

[13] = test system: pigweed (Amaranthus retroflexus); test: Test B postemergence
How it was run: as §1

[14] = test system: velvetleaf (Abutilon theophrasti); test: Test B postemergence
How it was run: as §1

[15] = test system: crabgrass (Digitaria sanguinalis); test: Test B postemergence
How it was run: as §1

[16] = test system: morning glory (Ipomoea hederacea); test: Test B postemergence
How it was run: as §1

[17] = test system: cocklebur (Xanthium strumarium); test: Test B postemergence
How it was run: as §1

[18] = test system: Surinam grass (Brachiaria decumbens); test: Test B postemergence
How it was run: as §1

[19] = test system: wheat (Triticum aestivum); test: Test B postemergence
How it was run: as §1

corn (Zea mays) [20] = test: Test B postemergence
How it was run: as §1

[21] = test system: lambsquarters (Chenopodium album); test: Test B postemergence
How it was run: as §1

[22] = test system: blackgrass (Alopecurus myosuroides); test: Test B postemergence
How it was run: as §1

Sunflower = test: Test C preemergence; settings: Rate 250 g/ha, scale 0 to 100, 0 no effect, 100 complete control
[23] = Preemergence, Rate 500 g/ha, scale 0 to 100, 0 no effect, 100 complete control
[24] = preemergence, Rate 125 g/ha, scale of 0 to 100 where 0 is no effect and 100 is complete control, 13 to 15 days
[25] = Rate 125 g/ha, scale 0 (no effect) to 100 (complete control), 13 to 15 days
[26] = Rate 500 g/ha, scale 0 to 100, 0 is no effect, 100 is complete control, 13 to 15 days
[27] = Rate 125 g/ha, scale 0 to 100, 0 no effect, 100 complete control

Structure (SMILES): CCCOc1cc(N2CCC(n3ccc(C(C)(C)C)n3)C2=O)ccc1C (stereo not shown) [Compound 107]
- Plant response rating (0 to 100), Nightshade (Nightshade): 90
- Plant response rating, Barnyardgrass [1, 23]: 30
- Plant response rating, Barnyardgrass [1, 24]: 0
- Plant response rating, Foxtail, Giant [2, 23]: 40
- Plant response rating, Foxtail, Giant [2, 24]: 0
- Plant response rating, Pigweed [3, 23]: 100
- Plant response rating, Pigweed [3, 24]: 80
- Plant response rating, Velvetleaf [4, 23]: 0
- Plant response rating, Velvetleaf [4, 24]: 0
- Plant response rating, Crabgrass [5, 23]: 100
- Plant response rating, Crabgrass [5, 24]: 0
- Plant response rating, Rice (rice (Oryza saliva); [23]): 0
- Plant response rating, Rice (rice (Oryza saliva); [24]): 0
- Plant response rating, Morningglory [6, 23]: 100
- Plant response rating, Morningglory [6, 24]: 0
- Plant response rating, Cocklebur [7, 23]: 20
- Plant response rating, Cocklebur [7, 24]: 0
- Plant response rating, Surinam grass [8, 23]: 70
- Plant response rating, Surinam grass [8, 24]: 0
- Plant response rating, Corn (corn (Zea mays) [9]; [23]): 0
- Plant response rating, Corn (corn (Zea mays) [9]; [24]): 0
- Plant response rating, Lambsquarters [10, 23]: 100
- Plant response rating, Lambsquarters [10, 24]: 100
- Plant response rating, Barnyardgrass [11, 25]: 0
- Plant response rating, Barnyardgrass [11, 26]: 0
- Plant response rating, Foxtail, Giant [12, 25]: 0
- Plant response rating, Foxtail, Giant [12, 26]: 0
- Plant response rating, Wild Oat (wild oat (Avena fatua); [26]): 0
- Plant response rating, Pigweed [13, 26]: 90
- Plant response rating, Velvetleaf [14, 26]: 70
- Plant response rating, Crabgrass [15, 25]: 0
- Plant response rating, Crabgrass [15, 26]: 0
- Plant response rating, Morningglory [16, 26]: 70
- Plant response rating, Cocklebur [17, 25]: 70
- Plant response rating, Cocklebur [17, 26]: 100
- Plant response rating, Surinam grass [18, 25]: 0
- Plant response rating, Surinam grass [18, 26]: 0
- Plant response rating, Wheat [19, 26]: 0
- Plant response rating, Corn (corn (Zea mays) [20]; [25]): 0
- Plant response rating, Corn (corn (Zea mays) [20]; [26]): 0
- Plant response rating, Lambsquarters [21, 26]: 100
- Plant response rating, Blackgrass [22, 25]: 0
- Plant response rating, Blackgrass [22, 26]: 0
- Plant response rating, Sunflower (Sunflower): 40

Structure (SMILES): CC(C)c1cccc(N2CCC(n3ccc(C(C)(C)C)n3)C2=O)c1 (stereo not shown) [Compound 111]
- Plant response rating (0 to 100), Nightshade (Nightshade): 0
- Plant response rating, Barnyardgrass [1, 23]: 100
- Plant response rating, Barnyardgrass [1, 24]: 0
- Plant response rating, Foxtail, Giant [2, 23]: 0
- Plant response rating, Foxtail, Giant [2, 24]: 0
- Plant response rating, Pigweed [3, 23]: 100
- Plant response rating, Pigweed [3, 24]: 0
- Plant response rating, Velvetleaf [4, 23]: 0
- Plant response rating, Velvetleaf [4, 24]: 0
- Plant response rating, Crabgrass [5, 23]: 100
- Plant response rating, Crabgrass [5, 24]: 70
- Plant response rating, Rice (rice (Oryza saliva); [23]): 0
- Plant response rating, Rice (rice (Oryza saliva); [24]): 0
- Plant response rating, Morningglory [6, 23]: 0
- Plant response rating, Morningglory [6, 24]: 0
- Plant response rating, Cocklebur [7, 23]: 0
- Plant response rating, Cocklebur [7, 24]: 0
- Plant response rating, Surinam grass [8, 23]: 0
- Plant response rating, Surinam grass [8, 24]: 0
- Plant response rating, Corn (corn (Zea mays) [9]; [23]): 30
- Plant response rating, Corn (corn (Zea mays) [9]; [24]): 0
- Plant response rating, Lambsquarters [10, 23]: 100
- Plant response rating, Lambsquarters [10, 24]: 30
- Plant response rating, Barnyardgrass [11, 27]: 0
- Plant response rating, Barnyardgrass [11, 26]: 0
- Plant response rating, Foxtail, Giant [12, 27]: 0
- Plant response rating, Foxtail, Giant [12, 26]: 0
- Plant response rating, Wild Oat (wild oat (Avena fatua); [27]): 0
- Plant response rating, Wild Oat (wild oat (Avena fatua); [26]): 60
- Plant response rating, Pigweed [13, 27]: 0
- Plant response rating, Pigweed [13, 26]: 0
- Plant response rating, Velvetleaf [14, 27]: 0
- Plant response rating, Velvetleaf [14, 26]: 0
- Plant response rating, Crabgrass [15, 27]: 0
- Plant response rating, Crabgrass [15, 26]: 30
- Plant response rating, Morningglory [16, 27]: 0
- Plant response rating, Morningglory [16, 26]: 0
- Plant response rating, Cocklebur [17, 27]: 0
- Plant response rating, Cocklebur [17, 26]: 0
- Plant response rating, Surinam grass [18, 27]: 0
- Plant response rating, Surinam grass [18, 26]: 40
- Plant response rating, Wheat [19, 27]: 20
- Plant response rating, Wheat [19, 26]: 20
- Plant response rating, Corn (corn (Zea mays) [20]; [27]): 0
- Plant response rating, Corn (corn (Zea mays) [20]; [26]): 0
- Plant response rating, Lambsquarters [21, 27]: 0
- Plant response rating, Lambsquarters [21, 26]: 20
- Plant response rating, Blackgrass [22, 27]: 0
- Plant response rating, Blackgrass [22, 26]: 20
- Plant response rating, Sunflower (Sunflower): 0
